Assay results: patent US20220218679A1, “NOVEL COMPOUNDS AND PHARMACEUTICAL COMPOSITIONS THEREOF FOR THE TREATMENT OF INFLAMMATORY DISORDERS” (Galapagos NV, priority 2019, published 2022)

Each molecule was assayed against T1, human IRAK-4 (Homo sapiens, UniProt Q9NWZ3) (assay: Phosphorylation IC50 determination for human IRAK-4 (ADP-Glo kinase assay)). Details: RIP140 substrate, Km ATP, read-out: IRAK4 IC50.
T1 construct: purchased Carna Biosciences 09 145
T1 sequence (Q9NWZ3 1-460): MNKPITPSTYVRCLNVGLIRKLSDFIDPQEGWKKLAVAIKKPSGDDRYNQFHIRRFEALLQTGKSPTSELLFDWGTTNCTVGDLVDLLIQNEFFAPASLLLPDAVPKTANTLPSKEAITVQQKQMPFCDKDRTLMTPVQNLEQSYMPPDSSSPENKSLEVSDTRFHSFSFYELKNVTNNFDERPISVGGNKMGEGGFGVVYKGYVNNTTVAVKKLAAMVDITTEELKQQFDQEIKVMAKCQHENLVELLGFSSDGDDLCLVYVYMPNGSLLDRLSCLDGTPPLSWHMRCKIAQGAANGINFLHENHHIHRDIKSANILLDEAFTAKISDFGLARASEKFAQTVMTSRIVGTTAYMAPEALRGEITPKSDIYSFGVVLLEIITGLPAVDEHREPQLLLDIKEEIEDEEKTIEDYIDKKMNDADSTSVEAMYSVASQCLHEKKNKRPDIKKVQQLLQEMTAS
Format: biochemical
Procedure: 3.1. Phosphorylation IC50 Determination for Human IRAK-4
The phosphorylation of the substrate RIP140 (SEQ IDi1) by IRAK4 at Km ATP was detected with the ADP-Glo Kinase Assay (Promega, Cat #V9103), a luminescent kinase assay which measures the ADP formed from a kinase reaction. (Zegzouti et al., 2009) In a second step the kinase reaction is terminated and all the remaining ATP was depleted. In a final step the ADP was converted into ATP and this newly synthesized ATP was measured by using a luciferase/luciferin reaction with a luminescent reader. The luminescent signal positively correlated with kinase activity, in particular kinase inhibition giving a decrease of the luminescent signal.
For the semi-automated assay, the positive control (100% inhibition) was prepared by diluting 10 mM staurosporine stock mixture (20 μL) in water (3.8 mL) and DMSO (180 μL), thus resulting in a […] staurosporine solution at 1% DMSO (final concentration after further dilution in the kinase reaction).
For the automated assay, no pre-dilution of the 10 mM staurosporine stock was made. 10 mM staurosporine was spotted directly in the assay plate using acoustic dispensing and complemented with DMSO to result in a similar final concentration as mentioned above.
For the semi-automated assay, the negative control (0% inhibition) was prepared by mixing water (3.8 mL) and DMSO (200 μL) resulting in a final concentration of 1% DMSO after further dilution in the kinase reaction. For the automated assay no pre-dilution of DMSO was done. 100% DMSO was spotted directly on the assay plate.
The assay buffer solution was prepared at a concentration corresponding to 5 fold the final (most diluted) assay concentration by mixing a solution of 125 mM TRIS pH 7.5+0.05% Triton X-100+2.5 mM EGTA (5.27 mL) with 1M MgCl2 (72 μL), 1M DTT (57.6 μL), and 200 mM MnCl2 (360 μL).
For example, for the semi-automated method, the enzyme-substrate mixture was prepared by mixing water (3999 μL), assay buffer solution (1380 μL), 1 mM RIP140 (138 μL—SEQ ID1), and 200 ng/mL IRAK 4 (3.45 μL Carna Biosciences, 09 145).
For semi-automated method, the ATP mixture was prepared at a concentration corresponding to 2.5 fold the final (most diluted) assay concentration of the semi-automated method and 1.5 fold the final (most diluted) assay concentration of the automated method. For example, for the semi-automated method, the ATP mixture was prepared by mixing water (4126 μL), assay buffer solution (1380 μL), and 10 mM ATP (13.80 μL).
The assay was performed either in a semi-automated or fully automated manner. The assay volume and the incubation time of the ADP detection were different accordingly the method used.
3.1.3.1. Semi-Automated Assay
The compounds were prepared as a serial dilution of 10 point dose responses with 1/5 dilution steps in 100% DMSO starting from 2 mM highest concentration, diluted 1/20 in water. 1 μL was transferred dry to the assay plates.
On each assay plate 32 wells of each control (positive & negative) were added, followed by 2 μL enzyme-substrate mixture.
The reaction was started by adding 2 μL diluted ATP (final concentration Km ATP) on the assay plates. Plates were centrifuged for a few seconds at 1000 rpm followed by an incubation at r.t. for 120 min.
The reactions were stopped and the unconsumed ATP was depleted by adding 5 μL ADP-glo Reagent (Promega, Cat #V9103) to the reaction. The plates were quickly centrifuged at 1000 rpm and incubated at r.t. for 40 min corresponding to full ATP depletion.
The ADP was converted back to ATP and luciferase and luciferin were introduced to detect ATP by adding 10 μL kinase detection reagent (Promega, Cat #V9103) to the reaction. The plates were centrifuged for a few seconds at 1000 rpm and incubated at r.t. for a further 30 min.
Luminescent read out was performed on an Envision luminescent reader (Perkin Elmer). […]
Work on `CC(C)(O)CCc1cc2cc(NC(=O)c3cccc(C(F)(F)F)n3)c(C(N)=O)cn2n1` [Compound 4, 2-(3-hydroxy-3-methylbutyl)-5-[[6-(trifluoromethyl)pyridine-2-carbonyl]amino]pyrazolo[1,5-a]pyridine-6-carboxamide] yielded an IC50 of 0.1 to 5 nM.
`CNC(=O)c1cn2nc(CCC(C)(C)O)cc2cc1NC(=O)c1cccc(C(F)(F)F)n1` [Compound 5, 2-(3-hydroxy-3-methylbutyl)-N-methyl-5-[[6-(trifluoromethyl)pyridine-2-carbonyl]amino]pyrazolo[1,5-a]pyridine-6-carboxamide] gave an IC50 of 0.1 to 5 nM.
With `COc1cn2nc(CC(F)C(C)(C)O)cc2cc1NC(=O)c1cccn(C2CC2)c1=O` (single isomer, unassigned; enantiomer b) [Compound 26, 1-cyclopropyl-N-[2-(2-fluoro-3-hydroxy-3-methyl-butyl)-6-methoxy-pyrazolo[1,5-a]pyridin-5-yl]-2-oxo-pyridine-3-carboxamide Enantiomer B] the IC50 was 10 to 50 nM.
Molecule `CNC(=O)c1cn2nc(C3CCOCC3)cc2cc1NC(=O)c1cccc(C(F)F)n1` [Compound 15, 5-[[6-(difluoromethyl)pyridine-2-carbonyl]amino]-N-methyl-2-tetrahydropyran-4-yl-pyrazolo[1,5-a]pyridine-6-carboxamide] has an IC50 of 0.1 to 5 nM.
Work on `CNC(=O)c1cn2nc(C3CCCS(=O)(=O)C3)cc2cc1NC(=O)c1cccc(C(F)(F)F)n1` (stereo not shown) [Compound 8, 2-(1,1-dioxothian-3-yl)-N-methyl-5-[[6-(trifluoromethyl)pyridine-2-carbonyl]amino]pyrazolo[1,5-a]pyridine-6-carboxamide] yielded an IC50 of 0.1 to 5 nM.
Molecule `COc1cn2nc(CCC(C)(C)O)cc2cc1NC(=O)c1cccc(C(F)(F)F)n1` [Compound 3, N-[2-(3-hydroxy-3-methylbutyl)-6-methoxypyrazolo[1,5-a]pyridin-5-yl]-6-(trifluoromethyl)pyridine-2-carboxamide] has an IC50 of 0.1 to 5 nM.
`COc1cn2nc(CCC(C)(C)O)cc2cc1NC(=O)c1cccn(C2CCC2)c1=O` [Compound 21, 1-cyclobutyl-N-[2-(3-hydroxy-3-methyl-butyl)-6-methoxy-pyrazolo[1,5-a]pyridin-5-yl]-2-oxo-pyridine-3-carboxamide] was tested, and the IC50 was 0.1 to 5 nM.
`[2H]C([2H])([2H])C(O)(CCc1cc2cc(NC(=O)c3cccn(C4CC4)c3=O)c(OC)cn2n1)C([2H])([2H])[2H]` [Compound 23, 1-cyclopropyl-N-[6-methoxy-2-[4,4,4-trideuterio-3-hydroxy-3-(trideuteriomethyl)butyl]pyrazolo[1,5-a]pyridin-5-yl]-2-oxo-pyridine-3-carboxamide] was tested, and the IC50 was 0.1 to 5 nM.
`COc1c(NC(=O)c2cccn(C3CC3)c2=O)cc2cc(CCC(C)(C)O)nn2c1C` [Compound 13, 1-cyclopropyl-N-[2-(3-hydroxy-3-methyl-butyl)-6-methoxy-7-methyl-pyrazolo[1,5-a]pyridin-5-yl]-2-oxo-pyridine-3-carboxamide] was tested, and the IC50 was 10 to 50 nM.
For `CNC(=O)c1cn2nc(C3CCN(C)CC3)cc2cc1NC(=O)c1cccc(C(F)(F)F)n1` [Compound 12, N-methyl-2-(1-methyl-4-piperidyl)-5-[[6-(trifluoromethyl)pyridine-2-carbonyl]amino]pyrazolo[1,5-a]pyridine-6-carboxamide], the IC50 was 0.1 to 5 nM.
Molecule `NC(=O)c1cn2nc(C3CCOCC3)cc2cc1NC(=O)c1cccc(C(F)F)n1` [Compound 16, 5-[[6-(difluoromethyl)pyridine-2-carbonyl]amino]-2-tetrahydropyran-4-yl-pyrazolo[1,5-a]pyridine-6-carboxamide] has an IC50 of 0.1 to 5 nM.
Molecule `CCOc1cn2nc(CCC(C)(C)O)cc2cc1NC(=O)c1cccn(C(F)F)c1=O` [Compound 9, 1-(difluoromethyl)-N-[6-ethoxy-2-(3-hydroxy-3-methyl-butyl)pyrazolo[1,5-a]pyridin-5-yl]-2-oxo-pyridine-3-carboxamide] has an IC50 of 5 to 10 nM.
`COc1cn2nc(CCC(C)(C)O)cc2cc1NC(=O)c1cccn(C)c1=O` [Compound 2, N-[2-(3-hydroxy-3-methylbutyl)-6-methoxypyrazolo[1,5-a]pyridin-5-yl]-1-methyl-2-oxopyridine-3-carboxamide] showed an IC50 of 0.1 to 5 nM.
`COc1cn2nc(CCC(C)(C)O)cc2cc1NC(=O)c1cccn(C(F)F)c1=O` [Compound 7, 1-(difluoromethyl)-N-[2-(3-hydroxy-3-methyl-butyl)-6-methoxy-pyrazolo[1,5-a]pyridin-5-yl]-2-oxo-pyridine-3-carboxamide] gave an IC50 of 5 to 10 nM.
`[2H]C([2H])([2H])Oc1cn2nc(CCC(C)(C)O)cc2cc1NC(=O)c1cccn(C2CC2)c1=O` [Compound 24, 1-cyclopropyl-N-[2-(3-hydroxy-3-methylbutyl)-6-(trideuteriomethoxy)pyrazolo[1,5-a]pyridin-5-yl]-2-oxopyridine-3-carboxamide] was tested, and the IC50 was 0.1 to 5 nM.
Work on `COc1cn2nc(CC(F)C(C)(C)O)cc2cc1NC(=O)c1cccn(C2CC2)c1=O` (stereo not shown) [Compound 22, 1-cyclopropyl-N-[2-(2-fluoro-3-hydroxy-3-methyl-butyl)-6-methoxy-pyrazolo[1,5-a]pyridin-5-yl]-2-oxo-pyridine-3-carboxamide] yielded an IC50 of 0.1 to 5 nM.
For `CCOc1cn2nc(CCC(C)(C)O)cc2cc1NC(=O)c1cccn(C)c1=O` [Compound 18, N-[6-ethoxy-2-(3-hydroxy-3-methyl-butyl)pyrazolo[1,5-a]pyridin-5-yl]-1-methyl-2-oxo-pyridine-3-carboxamide], the IC50 was 0.1 to 5 nM.
With `COc1cn2nc(CC(F)C(C)(C)O)cc2cc1NC(=O)c1cccn(C2CC2)c1=O` (single isomer, unassigned; enantiomer a) [Compound 25, 1-cyclopropyl-N-[2-(2-fluoro-3-hydroxy-3-methyl-butyl)-6-methoxy-pyrazolo[1,5-a]pyridin-5-yl]-2-oxo-pyridine-3-carboxamide Enantiomer A] the IC50 was 0.1 to 5 nM.
In the case of `CNC(=O)c1cn2nc(CCC(C)(C)O)cc2cc1NC(=O)c1cccc(C(F)F)n1` [Compound 19, 5-[[6-(difluoromethyl)pyridine-2-carbonyl]amino]-2-(3-hydroxy-3-methyl-butyl)-N-methyl-pyrazolo[1,5-a]pyridine-6-carboxamide], the IC50 is reported as 0.1 to 5 nM.
With `CCOc1cn2nc(CCC(C)(C)O)cc2cc1NC(=O)c1cccn(C2CC2)c1=O` [Compound 17, 1-cyclopropyl-N-[6-ethoxy-2-(3-hydroxy-3-methyl-butyl)pyrazolo[1,5-a]pyridin-5-yl]-2-oxo-pyridine-3-carboxamide] the IC50 was 0.1 to 5 nM.
With `CC(C)(O)CCc1cc2cc(NC(=O)c3cccc(C(F)F)n3)c(C(N)=O)cn2n1` [Compound 20, 5-[[6-(difluoromethyl)pyridine-2-carbonyl]amino]-2-(3-hydroxy-3-methyl-butyl)pyrazolo[1,5-a]pyridine-6-carboxamide] the IC50 was 0.1 to 5 nM.
Molecule `COc1cn2nc(CCC(C)(C)O)cc2cc1NC(=O)c1cccn(C2CC2)c1=O` [Compound 1, 1-cyclopropyl-N-[2-(3-hydroxy-3-methylbutyl)-6-methoxypyrazolo[1,5-a]pyridin-5-yl]-2-oxopyridine-3-carboxamide] has an IC50 of 0.1 to 5 nM.
